Results on three molecules are retold here after article PMC3589280 (Channels, 2013).

Assay [1] concerns the target T1, rBASIC (rat bile acid-sensitive ion channel) (Rattus norvegicus, UniProt Q9R0W5).
T1 sequence (Q9R0W5 1-495): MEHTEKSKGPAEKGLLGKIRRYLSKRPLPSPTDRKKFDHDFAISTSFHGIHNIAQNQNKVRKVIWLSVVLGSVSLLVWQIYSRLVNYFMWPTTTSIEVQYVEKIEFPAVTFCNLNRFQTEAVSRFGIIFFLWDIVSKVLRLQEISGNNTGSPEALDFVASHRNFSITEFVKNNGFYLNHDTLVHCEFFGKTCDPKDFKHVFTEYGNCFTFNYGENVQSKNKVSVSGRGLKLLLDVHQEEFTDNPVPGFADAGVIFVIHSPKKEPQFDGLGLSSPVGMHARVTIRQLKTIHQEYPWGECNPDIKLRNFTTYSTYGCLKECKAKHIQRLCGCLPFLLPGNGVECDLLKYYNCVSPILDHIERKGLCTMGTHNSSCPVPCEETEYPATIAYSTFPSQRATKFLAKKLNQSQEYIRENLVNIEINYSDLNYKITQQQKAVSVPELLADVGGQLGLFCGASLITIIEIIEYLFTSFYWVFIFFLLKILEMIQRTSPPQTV
The assay is described as follows: oocyte current recording, co-application. Type of assay: cell-based. The settings on record: 0.5 mM CDCA co-applied with 1.0 mM UDCA; CDCA not tested alone here.

For assay [2], the target named is T1, rBASIC (rat bile acid-sensitive ion channel). The assay is described as follows: oocyte current recording, concentration-response, Hill fit. It is filed as cell-based.

Molecules are shown by their SMILES.

Turning to `C[C@H](CCC(=O)O)[C@H]1CC[C@H]2[C@@H]3[C@H](O)C[C@@H]4C[C@H](O)CC[C@]4(C)[C@H]3CC[C@]12C` [CDCA], in assay [1], the “oocyte current recording, co-application” value was “CDCA and UDCA synergistically activate rBASIC”.
Consider `C[C@H](CCC(=O)O)[C@H]1CC[C@H]2[C@@H]3C[C@H](O)[C@@H]4C[C@H](O)CC[C@]4(C)[C@H]3CC[C@]12C` [HDCA], for which the EC50 (in general, the concentration giving half of the maximal effect) in assay [2] was 2.1 ± 0.04 mM.
For the molecule `C[C@H](CCC(=O)O)[C@H]1CC[C@H]2[C@@H]3[C@@H](O)C[C@@H]4C[C@H](O)CC[C@]4(C)[C@H]3CC[C@]12C` [UDCA], the response in assay [2] was half-maximal at 2.5 ± 0.04 mM (EC50).
